Measured values reported in patent US20240343717A1, “MICROBIOCIDAL PYRAZOLE DERIVATIVES” (SYNGENTA CROP PROTECTION AG, priority 2021, published 2024).

Key:
[1] = tested on: Mycosphaerella graminicola (Septoria tritici); test: Mycosphaerella graminicola (Septoria tritici) / liquid culture (Septoria blotch); assay type: cell-based; details: Zymoseptoria tritici, growth inhibition photometrically 4-5 days after application, read-out: control of Mycosphaerella graminicola
Description: (§1) Example B16: Mycosphaerella graminicola (Septoria tritici)/Liquid Culture (Septoria Blotch) Conidia of the fungus from cryogenic storage are directly mixed into nutrient broth (PDB potato dextrose broth). After placing a (DMSO) solution of test compound into a microtiter plate (96-well format), the nutrient broth containing the fungal spores is added. The test plates are incubated at 24° C. and the inhibition of growth is determined photometrically 4-5 days after application.

[2] = tested on: Mycosphaerella arachidis (Cercospora arachidicola); test: Mycosphaerella arachidis (Cercospora arachidicola) / liquid culture (early leaf spot); assay type: cell-based; details: growth inhibition photometrically 4-5 days after application, read-out: control of Mycosphaerella arachidis
Description: as §1, with “B10:” for “B16:”, “arachidis (Cercospora arachidicola)/Liquid” for “graminicola (Septoria tritici)/Liquid”, “(Early Leaf Spot)” for “(Septoria Blotch)”

[3] = tested on: Phaeosphaeria nodorum (Septoria nodorum); test: Phaeosphaeria nodorum (Septoria nodorum) / wheat / leaf disc preventative (glume blotch); assay type: in vivo; details: Parastagonospora nodorum, foliar, wheat leaf segments, inoculated 2 days after application
Description: Example B8: Phaeosphaeria nodorum (Septoria nodorum)/Wheat/Leaf Disc Preventative (Glume Blotch) Wheat leaf segments cv. Kanzler are placed on agar in a multiwell plate (24-well format) and sprayed with the formulated test compound diluted in water. The leaf disks are inoculated with a spore suspension of the fungus 2 days after application. The inoculated test leaf disks are incubated at 20° C. and 75% rh under a light regime of 12 h light/12 h darkness in a climate cabinet and the activity of a compound is assessed as percent disease control compared to untreated when an appropriate level of disease damage appears in untreated check leaf disks (5-7 days after application).

[4] = tested on: Monographella nivalis (Microdochium nivale); test: Monographella nivalis (Microdochium nivale) / liquid culture (foot rot cereals); assay type: cell-based; details: growth inhibition photometrically 4-5 days after application, read-out: control of Monographella nivalis
Description: as §1, with “B9: Monographella nivalis (Microdochium nivale)/Liquid” for “B16: Mycosphaerella graminicola (Septoria tritici)/Liquid”, “(Foot Rot Cereals)” for “(Septoria Blotch)”

[5] = tested on: Alternaria solani; test: Alternaria solani / tomato / leaf disc (early blight); assay type: in vivo; details: foliar, tomato leaf disks, sprayed 2 days before inoculation, compared to untreated control
Description: Example B1: Alternaria solani/Tomato/Leaf Disc (Early Blight) Tomato leaf disks cv. Baby are placed on agar in multiwell plates (24-well format) and sprayed with the formulated test compound diluted in water. The leaf disks are inoculated with a spore suspension of the fungus 2 days after application. The inoculated leaf disks are incubated at 23° C./21° C.

[6] = tested on: Botryotinia fuckeliana (Botrytis cinerea); test: Botryotinia fuckeliana (Botrytis cinerea) / liquid culture (gray mould); assay type: cell-based; details: growth inhibition photometrically 3-4 days after application, read-out: control of Botryotinia fuckeliana
Description: as §1, with “B2: Botryotinia fuckeliana (Botrytis cinerea)/Liquid” for “B16: Mycosphaerella graminicola (Septoria tritici)/Liquid”, “(Gray Mould)” for “(Septoria Blotch)”, “(Vogels” for “(PDB potato dextrose”, “3-4” for “4-5”

[7] = tested on: Glomerella lagenarium (Colletotrichum lagenarium); test: Glomerella lagenarium (Colletotrichum lagenarium) / liquid culture (anthracnose); assay type: cell-based; details: Colletotrichum orbiculare, growth inhibition photometrically 3-4 days after application, read-out: control of Glomerella lagenarium
Description: as §1, with “B3: Glomerella lagenarium (Colletotrichum lagenarium)/Liquid” for “B16: Mycosphaerella graminicola (Septoria tritici)/Liquid”, “(Anthracnose)” for “(Septoria Blotch)”, “measured” for “determined”, “3-4” for “4-5”

[8] = tested on: Pyrenophora teres; test: Pyrenophora teres / barley / leaf disc preventative (net blotch); assay type: in vivo; details: foliar, barley leaf segments, inoculated 2 days after application
Description: Example B14: Pyrenophora teres/Barley/Leaf Disc Preventative (Net Blotch) Barley leaf segments cv. Hasso are placed on agar in a multiwell plate (24-well format) and sprayed with the formulated test compound diluted in water. The leaf segments are inoculated with a spore suspension of the fungus 2 days after application. The inoculated leaf segments are incubated at 20° C. and 65% rh under a light regime of 12 h light/12 h darkness in a climate cabinet and the activity of a compound is assessed as disease control compared to untreated when an appropriate level of disease damage appears in untreated check leaf segments (5-7 days after application).

[9] = tested on: Blumeria graminis f. sp. tritici (Erysiphe graminis f. sp. tritici); test: Blumeria graminis f. sp. tritici / wheat / leaf disc preventative (powdery mildew on wheat); assay type: in vivo; details: foliar, wheat leaf segments, inoculated 1 day after application
Description: Example B4: Blumeria graminis f. Sp. Tritici (Erysiphe graminis f. Sp. Tritici)/Wheat/Leaf Disc Preventative (Powdery Mildew on Wheat) Wheat leaf segments cv. Kanzler are placed on agar in a multiwell plate (24-well format) and sprayed with the formulated test compound diluted in water. The leaf disks are inoculated by shaking powdery mildew infected plants above the test plates 1 day after application. The inoculated leaf disks are incubated at 20° C. and 60% rh under a light regime of 24 h darkness followed by 12 h light/12 h darkness in a climate chamber and the activity of a compound is assessed as percent disease control compared to untreated when an appropriate level of disease damage appears on untreated check leaf segments (6-8 days after application).

[10] = tested on: Fusarium culmorum; test: microbe, parasite or virus in culture; assay type: cell-based; details: read-out: control of Fusarium culmorum

CC(=O)c1cccc(C(C)(CNC(=O)c2cc(-c3ccc(F)cc3F)on2)c2cnn(C)c2)n1 (centres unmarked) [Compound P-48, N-[2-(6-acetyl-2-pyridyl)-2-(1-methylpyrazol-4-yl)propyl]-5-(2,4-difluorophenyl) isoxazole-3-carboxamide]
≥ 80%: inhibition of growth at 20 ppm [1] | inhibition of growth at 20 ppm [2] | pest or weed control at 200 ppm [3] | inhibition of growth at 20 ppm [4] | pest or weed control at 200 ppm [5] | inhibition of growth at 20 ppm [6] | inhibition of growth at 20 ppm [7] | pest or weed control at 200 ppm [8]

CO/N=C(/C)c1ccc(C(C)(CNC(=O)c2cc(-c3ccc(F)cc3F)on2)c2cnn(C)c2)nc1 (centres unmarked) [Compound P-61, 5-(2,4-difluorophenyl)-N-[2-[5-[(Z)-N-methoxy-C-methyl-carbonimidoyl]-2-pyridyl]-2-(1-methylpyrazol-4-yl)propyl]isoxazole-3-carboxamide]
≥ 80%: inhibition of growth at 20 ppm [1] | inhibition of growth at 20 ppm [2] | pest or weed control at 200 ppm [3] | inhibition of growth at 20 ppm [4] | pest or weed control at 200 ppm [5] | inhibition of growth at 20 ppm [7] | pest or weed control at 200 ppm [8]

Cn1cc(C(C)(CNC(=O)c2cc(-c3ccc(F)cc3F)no2)c2cccc(Cl)n2)cn1 (centres unmarked) [Compound P-4, N-[2-(6-chloro-2-pyridyl)-2-(1-methylpyrazol-4-yl)propyl]-3-(2,4-difluorophenyl)isoxazole-5-carboxamide]
≥ 80%: pest or weed control at 200 ppm [5] | inhibition of growth at 20 ppm [7] | pest or weed control at 200 ppm [9]

CCCCc1nnc(C(=O)NCC(C)(c2cnn(C)c2)c2cccc(Cl)n2)s1 (centres unmarked) [Compound P-108, 5-butyl-N-[2-(6-chloro-2-pyridyl)-2-(1-methylpyrazol-4-yl)propyl]-1,3,4-thiadiazole-2-carboxamide]
≥ 80%: inhibition of growth at 20 ppm [10] | inhibition of growth at 20 ppm [1] | inhibition of growth at 20 ppm [2] | inhibition of growth at 20 ppm [4] | inhibition of growth at 20 ppm [6] | inhibition of growth at 20 ppm [7]

Cn1cc(C(C)(CNC(=O)c2cc(-c3ccc(F)cc3F)on2)c2ccnc(Cl)n2)cn1 (centres unmarked) [Compound P-64, N-[2-(2-chloropyrimidin-4-yl)-2-(1-methylpyrazol-4-yl)propyl]-5-(2,4-difluorophenyl) isoxazole-3-carboxamide]
≥ 80%: inhibition of growth at 20 ppm [1] | pest or weed control at 200 ppm [3] | inhibition of growth at 20 ppm [4] | pest or weed control at 200 ppm [5] | inhibition of growth at 20 ppm [6] | inhibition of growth at 20 ppm [7] | pest or weed control at 200 ppm [9] | pest or weed control at 200 ppm [8]

Cn1cc(C(C)(CNC(=O)c2nnc(-c3ccc(F)cc3F)s2)c2ccccn2)cn1 (centres unmarked) [Compound P-6, 5-(2,4-difluorophenyl)-N-[2-(1-methylpyrazol-4-yl)-2-(2-pyridyl)propyl]-1,3,4-thiadiazole-2-carboxamide]
≥ 80%: inhibition of growth at 20 ppm [1] | pest or weed control at 200 ppm [3] | inhibition of growth at 20 ppm [4] | pest or weed control at 200 ppm [5] | inhibition of growth at 20 ppm [6] | inhibition of growth at 20 ppm [7] | pest or weed control at 200 ppm [9] | pest or weed control at 200 ppm [8]

CN(C)C(=O)c1cccc(C(C)(CNC(=O)c2cc(-c3ccc(F)cc3F)on2)c2cnn(C)c2)n1 (centres unmarked) [Compound P-44, 5-(2,4-difluorophenyl)-N-[2-[6-(dimethylcarbamoyl)-2-pyridyl]-2-(1-methylpyrazol-4-yl)propyl]isoxazole-3-carboxamide]
≥ 80%: pest or weed control at 200 ppm [3] | pest or weed control at 200 ppm [5] | pest or weed control at 200 ppm [8]

Cn1cc(C(C)(CNC(=O)c2cc(-c3ccc(F)cc3F)on2)c2ccccn2)cn1 (centres unmarked) [Compound P-11, 5-(2,4-difluorophenyl)-N-[2-(1-methylpyrazol-4-yl)-2-(2-pyridyl)propyl] isoxazole-3-carboxamide]
≥ 80%: inhibition of growth at 20 ppm [1] | pest or weed control at 200 ppm [3] | inhibition of growth at 20 ppm [4] | pest or weed control at 200 ppm [5] | inhibition of growth at 20 ppm [6] | inhibition of growth at 20 ppm [7] | pest or weed control at 200 ppm [9] | pest or weed control at 200 ppm [8]

CC(C)C(CNC(=O)c1cc(-c2ccc(F)cc2F)on1)(c1cnn(C)c1)c1cccc(Cl)n1 (centres unmarked) [Compound P-32, N-[2-(6-chloro-2-pyridyl)-3-methyl-2-(1-methylpyrazol-4-yl)butyl]-5-(2,4-difluorophenyl) isoxazole-3-carboxamide]
≥ 80%: inhibition of growth at 20 ppm [1] | pest or weed control at 200 ppm [3] | inhibition of growth at 20 ppm [4] | pest or weed control at 200 ppm [5] | inhibition of growth at 20 ppm [6] | pest or weed control at 200 ppm [8]

Cn1cc(C(C)(CNC(=O)c2cc(-c3ccc(F)cc3F)on2)c2cncc(Cl)n2)cn1 (centres unmarked) [Compound P-21, N-[2-(6-chloropyrazin-2-yl)-2-(1-methylpyrazol-4-yl)propyl]-5-(2,4-difluorophenyl) isoxazole-3-carboxamide]
≥ 80%: inhibition of growth at 20 ppm [1] | inhibition of growth at 20 ppm [6] | pest or weed control at 200 ppm [9] | pest or weed control at 200 ppm [8]

Cn1cc(C(C)(CNC(=O)c2noc(-c3ccc(F)cc3F)n2)c2cccc(Cl)n2)cn1 (centres unmarked) [Compound P-83, N-[2-(6-chloro-2-pyridyl)-2-(1-methylpyrazol-4-yl)propyl]-5-(2,4-difluorophenyl)-1,2,4-oxadiazole-3-carboxamide]
≥ 80%: inhibition of growth at 20 ppm [10] | inhibition of growth at 20 ppm [1] | inhibition of growth at 20 ppm [2] | pest or weed control at 200 ppm [3] | inhibition of growth at 20 ppm [4] | pest or weed control at 200 ppm [5] | inhibition of growth at 20 ppm [6] | inhibition of growth at 20 ppm [7] | pest or weed control at 200 ppm [9] | pest or weed control at 200 ppm [8]
